# Source: article PMC9331678 (Molecules, 2022)
# Key:
# [1] = Stability in plasma at −70 °C; assay type: in vitro ADME
# [2] = population modeling study; cited from earlier work
# [3] = 24 h therapeutic monitoring and noncompartmental pharmacokinetics in chronic lymphocytic leukemia patients receiving IBR; conditions: plasma; for mean DIB/IBR concentration ratio: three patients; for concentration at 0.5 h: 0.5 h postdose; for concentration at 1 h: 1 h postdose; for concentration at 2 h: 2 h postdose; for concentration at 4 h: 4 h postdose; for concentration at 23 h: 23 h postdose
# Description: In order to provide a proof of concept, IBR and DIB were assayed in the plasma samples of three patients treated with IBR. […] The criteria for inclusion were (1) age of ≥18 years, (2) treatment ongoing with IBR for more than 10 days, and (3) no concurrent administration of medications undergoing CYP3A4 metabolism. The subjects gave their written informed consent. Each participant took either two or three 140 mg Imbruvica capsules, as per the therapeutic provision, in the presence of the recruiting clinician.
# Blood samples were centrifuged at 3000 rpm for 10 min in a Hettich Universal 320R centrifuge (Auro-Science, Budapest, Hungary) at 10 °C. Plasma was separated and frozen at −70 °C until analysis was done within 2 weeks.
# [4] = Patient 1, 420 mg IBR per day, steady state
# [5] = Patient 2, 420 mg IBR per day, steady state
# [6] = Patient 3, 280 mg IBR per day, steady state
# [7] = human, oral, 280 mg/day, Conc., subj=3 (280 mg IBR per day)
# [8] = human, oral, 420 mg, Conc., subj=1 (420 mg IBR per day)
structure (smiles),measurement,setting,value
"Nc1ncnc2c1c(-c1ccc(Oc3ccccc3)cc1)nn2[C@@H]1CCCN(C(=O)C(O)CO)C1 (stereo partly drawn) [Dihydrodiol Ibrutinib, 1-[(3R)-3-[4-amino-3-(4-phenoxyphenyl)pyrazolo[3,4-d]pyrimidin-1-yl]piperidin-1-yl]-2,3-dihydroxypropan-1-one]",stability in plasma,[1],3 month
same,interindividual variability in the clearance,[2],51%
same,intraindividual variability in the clearance,[2],26%
same,AUC0–24,[3]; [4],2347 nmol·L/h
same,AUMC0–24,[3]; [4],"16,593 nmol × L"
same,AUC0–24,[3]; [5],2528 nmol·L/h
same,AUMC0–24,[3]; [5],"11,626 nmol × L"
same,AUC0–24,[3]; [6],1800 nmol·L/h
same,AUMC0–24,[3]; [6],8172 nmol·L
same,mean DIB/IBR concentration ratio,[3]; at 4 h postdose,2.36 ± 1.69
same,mean DIB/IBR concentration ratio,[3]; at the trough (23–24 h),3.34–3.44
same,mean DIB/IBR concentration ratio,[3]; between 0.5–2 h postdose,0.96–1.19
same,AUC,"[3]; human, oral, 280 mg, AUCALL AUC All, subj=3 (280 mg IBR per day), steady state",1.8 µM·h
same,AUC(0-inf),"[3]; human, oral, 280 mg, AUCIFO AUC Infinity Obs, subj=3 (280 mg IBR per day), steady state",1.88 µM·h
same,AUC(0-inf),"[3]; human, oral, 280 mg, AUCIFP AUC Infinity Pred, subj=3 (280 mg IBR per day), steady state",1.88 µM·h
same,AUC,"[3]; human, oral, 280 mg, AUCLST AUC to Last Nonzero Conc, subj=3 (280 mg IBR per day), steady state",1.8 µM·h
same,Cmax,"[3]; human, oral, 280 mg, CMAX Max Conc, subj=3 (280 mg IBR per day), steady state",217 nM
same,k el,"[3]; human, oral, 280 mg, LAMZ Lambda z, subj=3 (280 mg IBR per day), steady state",3.39e-05 s⁻¹
same,half-life,"[3]; human, oral, 280 mg, LAMZHL Half-Life Lambda z, subj=3 (280 mg IBR per day), steady state",5.68 h
same,MRT last,"[3]; human, oral, 280 mg, MRT0–24, Patient 3, 280 mg IBR per day, steady state",4.54 h
same,MRT,"[3]; human, oral, 280 mg, MRTEVIFO MRT Extravasc Infinity Obs, subj=3 (280 mg IBR per day), steady state",5.75 h
same,MRT,"[3]; human, oral, 280 mg, MRTEVIFP MRT Extravasc Infinity Pred, subj=3 (280 mg IBR per day), steady state",5.72 h
same,MRT,"[3]; human, oral, 280 mg, MRTEVLST MRT Extravasc to Last Nonzero Conc, subj=3 (280 mg IBR per day), steady state",4.54 h
same,Cmax,"[3]; human, oral, 280 mg, cmax, Patient 3, 280 mg IBR per day, steady state",217 nM
same,k el,"[3]; human, oral, 280 mg, ke, Patient 3, 280 mg IBR per day, steady state",3.39e-05 s⁻¹
same,half-life,"[3]; human, oral, 280 mg, t1/2, Patient 3, 280 mg IBR per day, steady state",5.68 h
same,Tmax,"[3]; human, oral, 280 mg, tmax, Patient 3, 280 mg IBR per day, steady state",2 h
same,concentration at 24 h,"[3]; human, oral, 280 mg/day, CLST Last Nonzero Conc, subj=3 (280 mg IBR per day), 24 h",10.1 nM
same,concentration at 24 h,"[3]; human, oral, 280 mg/day, CLSTP Last Nonzero Conc Pred, subj=3 (280 mg IBR per day), 24 h",9.84 nM
same,concentration at 0.5 h,[3]; [7],50.4 nM
same,concentration at 1 h,[3]; [7],195 nM
same,concentration at 2 h,[3]; [7],217 nM
same,concentration at 4 h,[3]; [7],113 nM
same,concentration at 23 h,[3]; [7],10.8 nM
same,concentration at 24 h,"[3]; human, oral, 280 mg/day, Conc., subj=3 (280 mg IBR per day), 24 h postdose",10.1 nM
same,AUC,"[3]; human, oral, 420 mg, AUCALL AUC All, subj=1 (420 mg IBR per day), steady state",2.35 µM·h
same,AUC,"[3]; human, oral, 420 mg, AUCALL AUC All, subj=2 (420 mg IBR per day), steady state",2.53 µM·h
same,AUC(0-inf),"[3]; human, oral, 420 mg, AUCIFO AUC Infinity Obs, subj=1 (420 mg IBR per day), steady state",2.85 µM·h
same,AUC(0-inf),"[3]; human, oral, 420 mg, AUCIFO AUC Infinity Obs, subj=2 (420 mg IBR per day), steady state",2.63 µM·h
same,AUC(0-inf),"[3]; human, oral, 420 mg, AUCIFP AUC Infinity Pred, subj=1 (420 mg IBR per day), steady state",2.88 µM·h
same,AUC(0-inf),"[3]; human, oral, 420 mg, AUCIFP AUC Infinity Pred, subj=2 (420 mg IBR per day), steady state",2.63 µM·h
same,AUC,"[3]; human, oral, 420 mg, AUCLST AUC to Last Nonzero Conc, subj=1 (420 mg IBR per day), steady state",2.35 µM·h
same,AUC,"[3]; human, oral, 420 mg, AUCLST AUC to Last Nonzero Conc, subj=2 (420 mg IBR per day), steady state",2.53 µM·h
same,concentration at 24 h,"[3]; human, oral, 420 mg, CLST Last Nonzero Conc, subj=1 (420 mg IBR per day), 24 h",34.6 nM
same,concentration at 24 h,"[3]; human, oral, 420 mg, CLST Last Nonzero Conc, subj=2 (420 mg IBR per day), 24 h",13.2 nM
same,concentration at 24 h,"[3]; human, oral, 420 mg, CLSTP Last Nonzero Conc Pred, subj=1 (420 mg IBR per day), 24 h",36.5 nM
same,concentration at 24 h,"[3]; human, oral, 420 mg, CLSTP Last Nonzero Conc Pred, subj=2 (420 mg IBR per day), 24 h",13 nM
same,Cmax,"[3]; human, oral, 420 mg, CMAX Max Conc, subj=1 (420 mg IBR per day), steady state",185 nM
same,Cmax,"[3]; human, oral, 420 mg, CMAX Max Conc, subj=2 (420 mg IBR per day), steady state",254 nM
same,concentration at 0.5 h,[3]; [8],53.4 nM
same,concentration at 1 h,[3]; [8],139 nM
same,concentration at 2 h,[3]; [8],185 nM
same,concentration at 4 h,[3]; [8],143 nM
same,concentration at 23 h,[3]; [8],41.3 nM
